Test results as given in PubChem BioAssay AID256 (DTP/NCI, 2004).
Several values for one entry are separate records, joined by “and”; a condition that tells them apart may be missing. Identical values can stand only once. Inconclusive results and toxic doses are left out. Rule for the calls: active = survival T/C of 150% or more; inactive = T/C below 125% in these data.

Tested on: CD2F1 mice, L1210 leukemia ip, survival T/C
Assay: NCI In Vivo Anticancer Drug Screen. Data for tumor model L1210 Leukemia (intraperitoneal) in CD2F1 (CDF1) mice
Conditions: higher = longer survival
Method in brief: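 Implant tumor; dose compound or vehicle; measure endpoint in both groups; report treated divided by control.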

[1] = endpoint: mean survival time, dose: 50.0 mg/kg/injection, schedule: Q01DX009 (ip), vehicle: saline with Tween-80
[2] = endpoint: mean survival time, dose: 100.0 mg/kg/injection, schedule: Q01DX009 (ip), vehicle: saline with Tween-80
[3] = endpoint: mean survival time, dose: 100.0 mg/kg/injection, schedule: Q04DX003 (ip), vehicle: saline with Tween-80
[4] = endpoint: mean survival time, dose: 200.0 mg/kg/injection, schedule: Q01DX009 (ip), vehicle: saline with Tween-80
[5] = endpoint: mean survival time, dose: 200.0 mg/kg/injection, schedule: Q04DX003 (ip), vehicle: saline with Tween-80
[6] = endpoint: mean survival time, dose: 400.0 mg/kg/injection, schedule: Q01DX009 (ip), vehicle: saline with Tween-80
[7] = endpoint: mean survival time, dose: 400.0 mg/kg/injection, schedule: Q04DX003 (ip), vehicle: saline with Tween-80

Measured: T/C

O=c1cc([O-])[n+](C2OC(CO)C(O)C2O)c2sccn12 (configuration not stated)
inactive: endpoint: median survival time, dose: 10.63 mg/kg/injection, schedule: Q01DX005 (ip), vehicle: water 102 % of control | endpoint: median survival time, dose: 12.5 mg/kg/injection, schedule: Q01DX005 (ip), vehicle: saline 102 % of control | endpoint: median survival time, dose: 21.25 mg/kg/injection, schedule: Q01DX005 (ip), vehicle: water 98 % of control | endpoint: median survival time, dose: 25.0 mg/kg/injection, schedule: Q01DX005 (ip), vehicle: saline 101 % of control | endpoint: median survival time, dose: 42.5 mg/kg/injection, schedule: Q01DX005 (ip), vehicle: water 98 % of control | endpoint: median survival time, dose: 50.0 mg/kg/injection, schedule: Q01DX005 (ip), vehicle: saline 98 % of control | endpoint: median survival time, dose: 85.0 mg/kg/injection, schedule: Q01DX005 (ip), vehicle: water 102 % of control | endpoint: median survival time, dose: 100.0 mg/kg/injection, schedule: Q01DX005 (ip), vehicle: saline 97 % of control | endpoint: median survival time, dose: 170.0 mg/kg/injection, schedule: Q01DX005 (ip), vehicle: water 100 % of control | endpoint: median survival time, dose: 200.0 mg/kg/injection, schedule: Q01DX005 (ip), vehicle: saline 98 % of control

CC(=O)[O][Pb]([O]C(C)=O)([c]1ccccc1)[c]1ccccc1
inactive: endpoint: mean survival time, dose: 6.25 mg/kg/injection, schedule: Q01DX009 (ip), vehicle: Klucel (hydroxypropylcellulose) (HPC) 89 % of control and 97 % of control | endpoint: mean survival time, dose: 12.5 mg/kg/injection, schedule: Q01DX009 (ip), vehicle: Klucel (hydroxypropylcellulose) (HPC) 87 % of control and 100 % of control | endpoint: mean survival time, dose: 25.0 mg/kg/injection, schedule: Q01DX009 (ip), vehicle: Klucel (hydroxypropylcellulose) (HPC) 96 % of control | endpoint: mean survival time, dose: 50.0 mg/kg/injection, schedule: Q01DX009 (ip), vehicle: Klucel (hydroxypropylcellulose) (HPC) 90 % of control and 95 % of control | endpoint: mean survival time, dose: 100.0 mg/kg/injection, schedule: Q01DX009 (ip), vehicle: Klucel (hydroxypropylcellulose) (HPC) 92 % of control and 97 % of control | endpoint: mean survival time, dose: 200.0 mg/kg/injection, schedule: Q01DX009 (ip), vehicle: Klucel (hydroxypropylcellulose) (HPC) 96 % of control

COc1cc(OC)c2c(c1Cl)OC(C(C)=O)C2=O (configuration not stated)
inactive: [1] 97 % of control | [2] 102 % of control | [3] 93 % of control | [4] 96 % of control | [5] 102 % of control

Cc1c(N)nc(I)c2ccccc12
inactive: [2] 98 % of control | [4] 93 % of control | [6] 87 % of control

O=C(NCCCl)Nc1ncn[nH]1
inactive: [3] 95 % of control | [5] 98 % of control | [7] 96 % of control

c1ccc(COCC2OC(C3N(c4ccccc4)CCN3c3ccccc3)C(OCc3ccccc3)C2OCc2ccccc2)cc1 (configuration not stated)
inactive: endpoint: mean survival time, dose: 12.5 mg/kg/injection, schedule: Q01DX005 (ip), vehicle: distilled water + Tween-80 102 % of control | endpoint: mean survival time, dose: 25.0 mg/kg/injection, schedule: Q01DX005 (ip), vehicle: distilled water + Tween-80 98 % of control | endpoint: mean survival time, dose: 50.0 mg/kg/injection, schedule: Q01DX005 (ip), vehicle: distilled water + Tween-80 102 % of control | endpoint: mean survival time, dose: 100.0 mg/kg/injection, schedule: Q01DX005 (ip), vehicle: distilled water + Tween-80 97 % of control | endpoint: mean survival time, dose: 200.0 mg/kg/injection, schedule: Q01DX005 (ip), vehicle: distilled water + Tween-80 92 % of control

C=CC(=O)Nc1ccccc1
inactive: endpoint: mean survival time, dose: 50.0 mg/kg/injection, schedule: Q04DX002 (ip), vehicle: Klucel (hydroxypropylcellulose) (HPC) 94 % of control | endpoint: mean survival time, dose: 100.0 mg/kg/injection, schedule: Q04DX002 (ip), vehicle: Klucel (hydroxypropylcellulose) (HPC) 94 % of control | [3] 96 % of control | endpoint: mean survival time, dose: 200.0 mg/kg/injection, schedule: Q04DX002 (ip), vehicle: Klucel (hydroxypropylcellulose) (HPC) 97 % of control | [5] 96 % of control | [7] 97 % of control

CN(C)c1ccc(/C=C/c2ccncc2)cc1
inactive: [2] 95 % of control | [4] 96 % of control | [6] 89 % of control

COc1cc(NC(C)=O)ccn1
inactive: [2] 95 % of control | [4] 96 % of control | [6] 102 % of control

CC(=O)Oc1ccc(C2NNC3(O)C(=O)N(C4CCCCC4)CC23)cc1 (configuration not stated)
inactive: [3] 90 % of control | [5] 94 % of control | [7] 98 % of control

O=S(=O)(OCC1C2CC3C(C2)C13)c1ccc(Br)cc1 (configuration not stated)
inactive: endpoint: mean survival time, dose: 100.0 mg/kg/injection, schedule: Q04DX003 (ip), vehicle: other 101 % of control | endpoint: mean survival time, dose: 200.0 mg/kg/injection, schedule: Q04DX003 (ip), vehicle: other 100 % of control | endpoint: mean survival time, dose: 400.0 mg/kg/injection, schedule: Q04DX003 (ip), vehicle: other 91 % of control

CCCCCCC[CH2][Sn]1([CH2]CCCCCCC)[O]C2C(CO)OC(n3ccc(N)nc3=O)C2[O]1 (configuration not stated)
inactive: endpoint: mean survival time, dose: 12.5 mg/kg/injection, schedule: Q01DX005 (ip), vehicle: other 103 % of control | endpoint: mean survival time, dose: 25.0 mg/kg/injection, schedule: Q01DX005 (ip), vehicle: other 97 % of control | endpoint: mean survival time, dose: 50.0 mg/kg/injection, schedule: Q01DX005 (ip), vehicle: other 100 % of control | endpoint: mean survival time, dose: 100.0 mg/kg/injection, schedule: Q01DX005 (ip), vehicle: other 109 % of control

CC1Cc2c([nH]c3ccc(Cl)cc23)CN1 (configuration not stated)
inactive: endpoint: mean survival time, dose: 100.0 mg/kg/injection, schedule: Q04DX002 (ip), vehicle: saline with Tween-80 86 % of control | endpoint: mean survival time, dose: 200.0 mg/kg/injection, schedule: Q04DX002 (ip), vehicle: saline with Tween-80 89 % of control

N#CC(O)c1ccc([N+](=O)[O-])cc1 (configuration not stated)
inactive: endpoint: mean survival time, dose: 1.25 mg/kg/injection, schedule: Q04DX002 (ip), vehicle: saline with Tween-80 101 % of control | endpoint: mean survival time, dose: 2.5 mg/kg/injection, schedule: Q04DX002 (ip), vehicle: saline with Tween-80 101 % of control | endpoint: mean survival time, dose: 5.0 mg/kg/injection, schedule: Q04DX002 (ip), vehicle: saline with Tween-80 101 % of control | endpoint: mean survival time, dose: 10.0 mg/kg/injection, schedule: Q04DX002 (ip), vehicle: saline with Tween-80 97 % of control

CCCCN=Cc1ccccc1O.CCCCN=Cc1ccccc1O.[Cr]
inactive: endpoint: mean survival time, dose: 100.0 mg/kg/injection, schedule: Q01DX001 (ip), vehicle: saline with Tween-80 93 % of control

FC(F)(F)c1ccc2ccc3ccc(Cl)cc3c2c1
inactive: endpoint: mean survival time, dose: 37.5 mg/kg/injection, schedule: Q01DX009 (ip), vehicle: saline 97 % of control | endpoint: mean survival time, dose: 75.0 mg/kg/injection, schedule: Q01DX009 (ip), vehicle: saline 94 % of control | endpoint: mean survival time, dose: 75.0 mg/kg/injection, schedule: Q04DX003 (ip), vehicle: saline 91 % of control | endpoint: mean survival time, dose: 150.0 mg/kg/injection, schedule: Q01DX009 (ip), vehicle: saline 91 % of control | endpoint: mean survival time, dose: 150.0 mg/kg/injection, schedule: Q04DX003 (ip), vehicle: saline 95 % of control | endpoint: mean survival time, dose: 300.0 mg/kg/injection, schedule: Q04DX003 (ip), vehicle: saline 97 % of control

CC(C)(C#N)N1CCCCC1
inactive: endpoint: mean survival time, dose: 1.25 mg/kg/injection, schedule: Q01DX009 (ip), vehicle: saline with Tween-80 107 % of control | endpoint: mean survival time, dose: 2.5 mg/kg/injection, schedule: Q01DX009 (ip), vehicle: saline with Tween-80 104 % of control | endpoint: mean survival time, dose: 5.0 mg/kg/injection, schedule: Q01DX009 (ip), vehicle: saline with Tween-80 98 % of control | endpoint: mean survival time, dose: 5.0 mg/kg/injection, schedule: Q04DX003 (ip), vehicle: saline 101 % of control

COC(=O)Nc1cccc(OC(=O)NC(C)(C)CC(C)(C)C)c1
inactive: endpoint: mean survival time, dose: 25.0 mg/kg/injection, schedule: Q01DX009 (ip), vehicle: saline with Tween-80 101 % of control | [1] 101 % of control | [2] 97 % of control

ICC12CCC1(CI)COC2 (configuration not stated)
inactive: endpoint: mean survival time, dose: 100.0 mg/kg/injection, schedule: Q04DX003 (ip), vehicle: saline 96 % of control | endpoint: mean survival time, dose: 200.0 mg/kg/injection, schedule: Q04DX003 (ip), vehicle: saline 96 % of control | endpoint: mean survival time, dose: 400.0 mg/kg/injection, schedule: Q04DX003 (ip), vehicle: saline 93 % of control
